{"source": "ChEMBL document CHEMBL6120970", "about": "“Discovery and Functional Characterization of a Potent, Selective, and Metabolically Stable PROTAC of the Protein Kinases DYRK1A and DYRK1B” (J Med Chem, 2024)", "key": {"[1]": {"assay": "AUC last in mouse at 10 mg/kg, po administered as single dose", "assay_type": "ADME, organism-based", "conditions": "in vivo"}, "[2]": {"target": "T1, Protein cereblon/Dual specificity tyrosine-phosphorylation-regulated kinase 1A (Homo sapiens, UniProt Q13627+Q96SW2)", "assay": "PROTAC activity at CRBN/DYRK1A in HEK293 cells assessed as induction of degradation of DYRK1A at 100 nM measured for 48 hrs by Western blot analysis", "assay_type": "cell-based"}, "[3]": {"target": "T2, Protein cereblon/Dual specificity tyrosine-phosphorylation-regulated kinase 1B (Homo sapiens) (UniProt Q9Y463+Q96SW2)", "assay": "PROTAC activity at CRBN/DYRK1B in HEK293 cells assessed as induction of degradation of DYRK1B at 100 nM measured within 8 hrs by Western blot analysis", "assay_type": "cell-based"}, "[4]": {"target": "Protein cereblon/Dual specificity tyrosine-phosphorylation-regulated kinase 1B (Homo sapiens, UniProt Q96SW2+Q9Y463)", "assay": "Competitive binding affinity to CRBN/DYRK1B (unknown origin) assessed as dissociation constant", "assay_type": "protein assay"}, "[5]": {"target": "T1, Protein cereblon/Dual specificity tyrosine-phosphorylation-regulated kinase 1A", "assay": "Competitive binding affinity to CRBN/DYRK1A (unknown origin) assessed as residence time", "assay_type": "protein assay"}, "[6]": {"target": "T1, Protein cereblon/Dual specificity tyrosine-phosphorylation-regulated kinase 1A", "assay": "PROTAC activity at CRBN/DYRK1A in SH-SY5Y cells assessed as induction of degradation of DYRK1A at 100 nM incubated for 24 hrs", "assay_type": "cell-based"}, "SH-SY5Y [7]": {"test_system": "SH-SY5Y", "assay": "Cytotoxicity against human SH-SY5Y cells assessed as reduction in cell viability at 100 nM measured upto 96 hrs in presence of cisplatin by real-time cell analysis", "assay_type": "functional, cell-based"}, "[8]": {"assay": "Oral availability in mouse at 10 mg/kg administered as single dose", "assay_type": "ADME, organism-based", "conditions": "in vivo"}, "[9]": {"target": "T2, Protein cereblon/Dual specificity tyrosine-phosphorylation-regulated kinase 1B (Homo sapiens)", "assay": "PROTAC activity at CRBN/DYRK1B in HEK293 cells assessed as induction of degradation of DYRK1B at 100 nM pretreated with CB-5083 followed by compound addition and incubated for 8 hrs", "assay_type": "cell-based"}, "[10]": {"assay": "AUC infinity in mouse at 1 mg/kg, iv administered as single dose", "assay_type": "ADME, organism-based", "conditions": "in vivo"}, "[11]": {"target": "T1, Protein cereblon/Dual specificity tyrosine-phosphorylation-regulated kinase 1A", "assay": "PROTAC activity at CRBN/HibiT-tagged DYRK1A in HEK293 cells assessed as induction of degradation of DYRK1A at 1 uM measured after 24 hrs by Western blot analysis", "assay_type": "cell-based"}, "[12]": {"assay": "Half life in mouse at 1 mg/kg, iv administered as single dose", "assay_type": "ADME, organism-based", "conditions": "in vivo"}, "[13]": {"assay": "Bioavailability in mouse at 10 mg/kg, ip administered as single dose", "assay_type": "ADME, organism-based", "conditions": "in vivo"}, "[14]": {"assay": "MRT in mouse at 10 mg/kg, ip administered as single dose", "assay_type": "ADME, organism-based", "conditions": "in vivo"}, "HEK293": {"test_system": "HEK293", "assay": "Downregulation of DYRK1B mRNA expression in HEK293 cells at 100 nM measured after 24 hrs by qRT-PCR analysis", "assay_type": "functional, cell-based", "conditions": "Homo sapiens"}, "[15]": {"target": "T1, Protein cereblon/Dual specificity tyrosine-phosphorylation-regulated kinase 1A", "assay": "PROTAC activity at CRBN/DYRK1A in HEK293 cells assessed as induction of degradation of DYRK1A at 100 nM pretreated with bortezomib followed by compound addition and incubated for 8 hrs", "assay_type": "cell-based"}, "[16]": {"assay": "Permeability of the compound in human Caco-2 cells across basolateral side to apical side", "assay_type": "ADME, cell-based", "conditions": "read-out: permeability"}, "[17]": {"target": "T2, Protein cereblon/Dual specificity tyrosine-phosphorylation-regulated kinase 1B (Homo sapiens)", "assay": "PROTAC activity at CRBN/DYRK1B in HEK293 cells assessed as induction of degradation of DYRK1B at 100 nM pretreated with bortezomib followed by compound addition and incubated for 8 hrs", "assay_type": "cell-based"}, "[18]": {"assay": "AUClast in mouse at 1 mg/kg, iv administered as single dose", "assay_type": "ADME, organism-based", "conditions": "in vivo"}, "[19]": {"assay": "Permeability of the compound in human Caco-2 cells across apical to basolateral side", "assay_type": "ADME, cell-based", "conditions": "read-out: permeability"}, "[20]": {"target": "T1, Protein cereblon/Dual specificity tyrosine-phosphorylation-regulated kinase 1A", "assay": "PROTAC activity at CRBN/DYRK1A in HEK293 cells assessed as induction of degradation of DYRK1A at 100 nM measured within 8 hrs by Western blot analysis", "assay_type": "cell-based"}, "[21]": {"target": "T1, Protein cereblon/Dual specificity tyrosine-phosphorylation-regulated kinase 1A", "assay": "PROTAC activity at CRBN/HibiT-tagged DYRK1A in Flp-In-T-REx-293 cells assessed as induction of degradation of DYRK1A at 100 to 300 nM by measured after 24 hrs by NanoBiT luciferase assay", "assay_type": "cell-based", "conditions": "dose 100-300 nM"}, "[22]": {"target": "T2, Protein cereblon/Dual specificity tyrosine-phosphorylation-regulated kinase 1B (Homo sapiens)", "assay": "PROTAC activity at CRBN/DYRK1B in Flp-In-T-REx-293 cells overexpressing GFP-DYRK1B assessed as initial rate of degradation at 1 uM measured upto 6 hrs by fluorescence based phase contrast microscopy analysis", "assay_type": "cell-based"}, "[23]": {"target": "T1, Protein cereblon/Dual specificity tyrosine-phosphorylation-regulated kinase 1A", "assay": "PROTAC activity at CRBN/DYRK1A in Flp-In-T-REx-293 cells overexpressing GFP-DYRK1A assessed as initial rate of degradation at 1 uM measured upto 6 hrs by fluorescence based phase contrast microscopy analysis", "assay_type": "cell-based"}, "[24]": {"target": "T1, Protein cereblon/Dual specificity tyrosine-phosphorylation-regulated kinase 1A", "assay": "PROTAC activity at CRBN/DYRK1A in HEK293 cells assessed as induction of degradation of DYRK1A at 100 nM pretreated with MLN4924 followed by compound addition and incubated for 8 hrs", "assay_type": "cell-based"}, "[25]": {"target": "T2, Protein cereblon/Dual specificity tyrosine-phosphorylation-regulated kinase 1B (Homo sapiens)", "assay": "PROTAC activity at CRBN/DYRK1B in HEK293 cells assessed as induction of degradation of DYRK1B by measuring maximum efficacy at 1 to 10000 nM incubated for 24 hrs relative to control", "assay_type": "cell-based", "conditions": "dose 1-10000 nM"}, "[26]": {"target": "T2, Protein cereblon/Dual specificity tyrosine-phosphorylation-regulated kinase 1B (Homo sapiens)", "assay": "PROTAC activity at CRBN/DYRK1B in HEK293 cells overexpressing DYRK1B-p69 assessed as induction of degradation of DYRK1B at 1 uM measured after 24 hrs by Western blot analysis", "assay_type": "cell-based"}, "[27]": {"assay": "Half life in mouse blood", "assay_type": "ADME, tissue-based"}, "[28]": {"target": "T2, Protein cereblon/Dual specificity tyrosine-phosphorylation-regulated kinase 1B (Homo sapiens)", "assay": "PROTAC activity at CRBN/DYRK1B in HEK293 cells overexpressing DYRK1B p65 assessed as induction of degradation of DYRK1B at 1 uM measured after 24 hrs by Western blot analysis", "assay_type": "cell-based"}, "[29]": {"assay": "Volume of distribution at steady state in mouse at 1 mg/kg, iv administered as single dose", "assay_type": "ADME, organism-based", "conditions": "in vivo, read-out: Vdss"}, "[30]": {"target": "T2, Protein cereblon/Dual specificity tyrosine-phosphorylation-regulated kinase 1B (Homo sapiens)", "assay": "PROTAC activity at CRBN/DYRK1B in SH-SY5Y cells assessed as induction of degradation of DYRK1B at 100 nM incubated for 24 hrs", "assay_type": "cell-based"}, "[31]": {"target": "T1, Protein cereblon/Dual specificity tyrosine-phosphorylation-regulated kinase 1A", "assay": "Competitive binding affinity to CRBN/DYRK1A (unknown origin) assessed as dissociation rate constant Koff", "assay_type": "protein assay"}, "SH-SY5Y [32]": {"test_system": "SH-SY5Y", "assay": "Cytotoxicity against human SH-SY5Y cells assessed as reduction in cell viability at 100 nM measured upto 96 hrs by real-time cell analysis", "assay_type": "functional, cell-based"}, "[33]": {"assay": "Metabolic stability in human liver microsomes assessed as intrinsic clearance", "assay_type": "ADME, Microsome", "conditions": "read-out: CLH"}, "[34]": {"target": "T1, Protein cereblon/Dual specificity tyrosine-phosphorylation-regulated kinase 1A", "assay": "PROTAC activity at CRBN/DYRK1A in human SH-SY5Y cells assessed as induction of degradation of DYRK1A at 100 nM incubated for 8 hrs relative to control", "assay_type": "cell-based"}, "[35]": {"assay": "Solubility of the compound in FeSSIF buffer", "assay_type": "physicochemical"}, "[36]": {"target": "T2, Protein cereblon/Dual specificity tyrosine-phosphorylation-regulated kinase 1B (Homo sapiens)", "assay": "PROTAC activity at CRBN/DYRK1B in HEK293 cells assessed as induction of degradation of DYRK1B at 100 nM pretreated with leucettine-41 followed by compound addition and incubated for 8 hrs", "assay_type": "cell-based"}, "[37]": {"assay": "MRT in mouse at 10 mg/kg, po administered as single dose", "assay_type": "ADME, organism-based", "conditions": "in vivo"}}, "note": "The source made the active and inactive calls. No cut-off for these calls is given here.", "data": [{"smiles": "Cc1nc2ccc(-c3ccnc(N)c3)nc2n1-c1ccc(N2CCN(CC#Cc3ccc(N4CCC(C(=O)N5CCC(n6cc(CNc7cccc8c7C(=O)N(C7CCC(=O)NC7=O)C8=O)cn6)CC5)CC4)nc3)CC2)c(F)c1", "note": "(stereo not drawn)", "values": [{"measurement": "AUC(0-t)", "setting": "[1]", "result": 56, "unit": "ng·h/mL"}, {"measurement": "Activity", "setting": "[2]", "result": "Active"}, {"measurement": "Activity", "setting": "[3]", "result": "Active"}, {"measurement": "Kd", "setting": "[4]", "result": 0.016, "unit": "µM"}, {"measurement": "TIME", "setting": "[5]", "result": 0.383, "unit": "h"}, {"measurement": "Activity", "setting": "[6]", "result": "Active"}, {"measurement": "Activity", "setting": "SH-SY5Y [7]", "result": "Active; Compound Showed Moderate Toxicity"}, {"measurement": "bioavailability", "setting": "[8]", "result": 0.25, "unit": "%"}, {"measurement": "Activity", "setting": "[9]", "result": "inactive"}, {"measurement": "AUC(0-inf)", "setting": "[10]", "result": 2470, "unit": "ng·h/mL"}, {"measurement": "Activity", "setting": "[11]", "result": "Active"}, {"measurement": "half-life", "setting": "[12]", "result": 3.33, "unit": "h"}, {"measurement": "bioavailability", "setting": "[13]", "result": 109, "unit": "%"}, {"measurement": "MRT", "setting": "[14]", "result": 5.77, "unit": "h"}, {"measurement": "Activity", "setting": "HEK293", "result": "inactive"}, {"measurement": "Activity", "setting": "[15]", "result": "inactive"}, {"measurement": "Papp B→A", "setting": "[16]", "result": "< 0.243", "unit": "×10⁻⁶ cm/s"}, {"measurement": "Activity", "setting": "[17]", "result": "inactive"}, {"measurement": "AUC(0-t)", "setting": "[18]", "result": 2460, "unit": "ng·h/mL"}, {"measurement": "Papp A→B", "setting": "[19]", "result": "< 0.27", "unit": "×10⁻⁶ cm/s"}, {"measurement": "Activity", "setting": "[20]", "result": "Active"}, {"measurement": "Activity", "setting": "[21]", "result": "Active"}, {"measurement": "Activity", "setting": "[22]", "result": 1.16, "unit": "h⁻¹"}, {"measurement": "Activity", "setting": "[23]", "result": 0.74, "unit": "h⁻¹"}, {"measurement": "Activity", "setting": "[24]", "result": "inactive"}, {"measurement": "Emax", "setting": "[25]", "result": 50, "unit": "%"}, {"measurement": "Activity", "setting": "[26]", "result": "Active"}, {"measurement": "half-life", "setting": "[27]", "result": 15.2, "unit": "h"}, {"measurement": "Activity", "setting": "[28]", "result": "inactive"}, {"measurement": "Vd", "setting": "[29]", "result": 0.614, "unit": "L/kg"}, {"measurement": "Activity", "setting": "[30]", "result": "Active"}, {"measurement": "K", "setting": "[31]", "result": "7.25 10^-4/s"}, {"measurement": "Activity", "setting": "SH-SY5Y [32]", "result": "Active"}, {"measurement": "CLint scaled", "setting": "[33]", "result": 10.1, "unit": "mL/min/kg"}, {"measurement": "Activity", "setting": "[34]", "result": 100, "unit": "%"}, {"measurement": "solubility", "setting": "[35]", "result": 2.09, "unit": "µM"}, {"measurement": "Activity", "setting": "[36]", "result": "inactive"}, {"measurement": "MRT", "setting": "[37]", "result": 2.51, "unit": "h"}]}]}
